Laboratory results published in patent US20230338386A1, “DPP-IV INHIBITOR COMBINED WITH A FURTHER ANTIDIABETIC AGENT, TABLETS COMPRISING SUCH FORMULATIONS, THEIR USE AND PROCESS FOR THEIR PREPARATION” (Boehringer Ingelheim International GmbH, priority 2008, published 2023).

Test: Stability of FDC dosage forms (in words)
Type: physicochemical
Settings: after 6 months storage at accelerated conditions; effect seems concentration dependent

suppression of degradation of BI 1356 free base in FDC combinations with metformin HCl: able to suppress degradation
SMILES: N=C(N)NCCC[C@H](N)C(=O)O [L-arginine]
